The target of test [1] is T1, N-acetyltransferase 2 (Homo sapiens, UniProt P11245).
T1 construct: gene NAT2
The experiment in a line: recombinant human NAT2 acetylation kinetics, LC-MS/MS of NAPA. In kind it is biochemical.

Test [2] concerns the target MAP3K9 (Homo sapiens, UniProt P80192). The test is described as follows: biochemical. On the set-up: scanMAX competition binding; kinase recovered on immobilized ligand quantified by qPCR, per cent of control. The note with it: read-out: APA (POC). The procedure: (§1) The binding affinities of APA and NAPA were evaluated in the scanMAX^sm Kinase Assay Panel (DiscoverX) at a final concentration of 10 µM. The compounds were tested for steric or allosteric binding to kinases in solution. The kinase was captured from the solution through an immobilized kinase-specific ligand and the kinase recovery was quantified. The amount of recovered kinase in the presence or absence of APA or NAPA was measured by quantitative PCR compared with the kinase capture in absence of the compound. Any compound reducing the binding affinity of a kinase to the respective immobilized ligand was scored as a potential hit, and the binding affinity of the compound toward a kinase is interpreted as the difference between the kinase recovery in the absence and presence of the compound. The inhibitory binding constants (Kd) of APA and NAPA to AURKA were evaluated in a KdELECT Kinase Assay (DiscoverX). […] Data acquisition followed the same methodology as for the scanMAX^sm Kinase Assay Panel. 6 Supplementary Figure 4. Kinome inhibition profiles of APA and its NAT2 metabolite NAPA identifies preferential APA kinase targets and differential binding to AURKA a The human kinome was assessed for binding affinity to APA and NAPA at 10 µM concentration (468 kinases in the scanMAX Kinase Assay Panel, DiscoverX). The family stratification of kinases is shown as a cladogram. Circles visualize the binding affinity of NAPA and APA towards each kinase with a higher intensity of blue corresponding to a higher binding affinity. […] One single data point from one experiment at a concentration 18.5 µM of APA was excluded as an outlier. c Thermal shift assay for human recombinant AURKA in the presence of APA and the selective inhibitor S1451. Melting temperatures were obtained by calculating the first derivative of the tryptophan fluorescence ratio at 350 nm and 330 nm and are shown for AURKA in the presence of S1451 (blue) and APA (yellow). Structural similarities between APA and kinase inhibitors[27] prompted investigation of protein kinases as mediators of APA toxicity. […] To enrich for kinase interactions that could explain the preferential killing of slow NAT2 cells, we compared the binding affinity of each kinase with APA and NAPA, selected 44 targets with preferential binding to APA and excluded kinases non-essential for cell survival and those not expressed in CRC cells (Supplementary Fig. 4A, Supplementary Table 4). […] The growth inhibition of RKO and DLD-1 following siRNA-mediated AURKA knockdown (Figs. 3c, d) reflected the relative efficiency of protein downregulation (Supplementary Fig. 5C, D). […] (Supplementary Fig. 4C). AURKA regulates cell cycle progression through association with other centrosome and spindle-associated proteins. Its activation requires auto-phosphorylation at Thr288 and ensures spindle pole integrity, centrosome duplication as well as adequate chromosomal alignment and segregation, while its inhibition leads to multipolar spindles with acentrosomal poles[28],[31]. […] S1451 reduced the fraction of pAURKA levels by >90% regardless of NAT2 expression (Fig. 3f and Su

Test [3] concerns the target MKNK2 (Homo sapiens, UniProt Q9HBH9). The test is described as follows: biochemical. On the set-up: scanMAX competition binding; kinase recovered on immobilized ligand quantified by qPCR, per cent of control. The note with it: read-out: APA (POC). On the procedure: as §1
Test [4] concerns the target PIP4K2B (Homo sapiens, UniProt P78356). The experiment in a line: biochemical. On the set-up: scanMAX competition binding; kinase recovered on immobilized ligand quantified by qPCR, per cent of control. The note with it: read-out: APA (POC). The procedure:
as §1

For test [5], the target named is RIOK3 (Homo sapiens, UniProt O14730). The experiment in a line: biochemical. More on the design: scanMAX competition binding; kinase recovered on immobilized ligand quantified by qPCR, per cent of control. The note with it: read-out: APA (POC). On the procedure: as §1
Chain of RIOK3 (O14730 whole entry): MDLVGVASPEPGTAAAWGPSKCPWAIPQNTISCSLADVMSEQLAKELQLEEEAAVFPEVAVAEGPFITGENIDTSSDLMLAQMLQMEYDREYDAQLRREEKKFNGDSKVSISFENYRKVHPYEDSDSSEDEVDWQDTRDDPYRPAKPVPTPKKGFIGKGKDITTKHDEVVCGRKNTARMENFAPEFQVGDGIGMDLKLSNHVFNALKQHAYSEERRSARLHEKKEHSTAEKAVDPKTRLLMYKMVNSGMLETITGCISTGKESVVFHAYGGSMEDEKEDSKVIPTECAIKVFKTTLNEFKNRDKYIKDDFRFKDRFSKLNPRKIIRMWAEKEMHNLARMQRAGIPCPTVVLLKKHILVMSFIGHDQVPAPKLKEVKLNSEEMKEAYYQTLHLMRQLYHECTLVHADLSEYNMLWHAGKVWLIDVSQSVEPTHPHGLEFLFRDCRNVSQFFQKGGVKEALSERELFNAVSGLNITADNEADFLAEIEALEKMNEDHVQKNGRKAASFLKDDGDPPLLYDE
The target in test [6] is IRAK3 (Homo sapiens, UniProt Q9Y616). The experiment in a line: biochemical. On the set-up: scanMAX competition binding; kinase recovered on immobilized ligand quantified by qPCR, per cent of control. The note with it: read-out: APA (POC). The procedure:
as §1

The target in test [7] is CSNK2A2 (Homo sapiens, UniProt P19784). The test is described as follows: biochemical. More on the design: scanMAX competition binding; kinase recovered on immobilized ligand quantified by qPCR, per cent of control. As to conditions: read-out: APA (POC). The procedure:
as §1

Test [8] concerns the target T2, JAK3_JH1 (Homo sapiens, UniProt P52333).
T2 construct: gene JAK3; JH1 domain
The experiment in a line: biochemical. More on the design: scanMAX competition binding; kinase recovered on immobilized ligand quantified by qPCR, per cent of control. The note with it: read-out: APA (POC). The procedure:
as §1

Test [9] addresses CLK2 (Homo sapiens, UniProt P49760). The test is described as follows: biochemical. On the set-up: scanMAX competition binding; kinase recovered on immobilized ligand quantified by qPCR, per cent of control. The note with it: read-out: APA (POC). The procedure:
as §1

Test [10] addresses FLT4 (Homo sapiens, UniProt P35916). The experiment in a line: biochemical. On the set-up: scanMAX competition binding; kinase recovered on immobilized ligand quantified by qPCR, per cent of control. As to conditions: read-out: APA (POC). On the procedure: as §1
Test [11] has as its target MKNK1 (Homo sapiens, UniProt Q9BUB5). The test is described as follows: biochemical. On the set-up: scanMAX competition binding; kinase recovered on immobilized ligand quantified by qPCR, per cent of control. The note with it: read-out: APA (POC). On the procedure: as §1
The target in test [12] is KDR (Homo sapiens, UniProt P35968). The experiment in a line: biochemical. On the set-up: scanMAX competition binding; kinase recovered on immobilized ligand quantified by qPCR, per cent of control. As to conditions: read-out: APA (POC). The procedure:
as §1

For test [13], the target named is T3, ZAK (Homo sapiens, UniProt Q9NYL2).
T3 construct: gene MAP3K20
The test is described as follows: biochemical. More on the design: scanMAX competition binding; kinase recovered on immobilized ligand quantified by qPCR, per cent of control. The note with it: read-out: APA (POC). The procedure: as §1

Test [14] concerns the target MAP3K11 (Homo sapiens, UniProt Q16584). The test is described as follows: biochemical. More on the design: scanMAX competition binding; kinase recovered on immobilized ligand quantified by qPCR, per cent of control. The note with it: read-out: APA (POC). The procedure: as §1

Chain of MKNK1 (Q9BUB5 whole entry): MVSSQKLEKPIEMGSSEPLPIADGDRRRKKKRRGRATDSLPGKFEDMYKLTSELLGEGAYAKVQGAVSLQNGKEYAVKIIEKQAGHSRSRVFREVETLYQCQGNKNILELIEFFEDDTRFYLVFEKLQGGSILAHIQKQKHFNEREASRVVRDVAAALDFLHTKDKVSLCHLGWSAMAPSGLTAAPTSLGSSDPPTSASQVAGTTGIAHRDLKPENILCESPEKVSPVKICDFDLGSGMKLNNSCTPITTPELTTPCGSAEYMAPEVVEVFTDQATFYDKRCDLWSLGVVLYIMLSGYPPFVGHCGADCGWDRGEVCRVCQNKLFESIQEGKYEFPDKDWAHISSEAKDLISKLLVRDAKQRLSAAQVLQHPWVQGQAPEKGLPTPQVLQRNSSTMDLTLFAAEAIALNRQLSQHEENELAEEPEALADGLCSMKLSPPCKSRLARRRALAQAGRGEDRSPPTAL
Chain of CLK2 (P49760 whole entry): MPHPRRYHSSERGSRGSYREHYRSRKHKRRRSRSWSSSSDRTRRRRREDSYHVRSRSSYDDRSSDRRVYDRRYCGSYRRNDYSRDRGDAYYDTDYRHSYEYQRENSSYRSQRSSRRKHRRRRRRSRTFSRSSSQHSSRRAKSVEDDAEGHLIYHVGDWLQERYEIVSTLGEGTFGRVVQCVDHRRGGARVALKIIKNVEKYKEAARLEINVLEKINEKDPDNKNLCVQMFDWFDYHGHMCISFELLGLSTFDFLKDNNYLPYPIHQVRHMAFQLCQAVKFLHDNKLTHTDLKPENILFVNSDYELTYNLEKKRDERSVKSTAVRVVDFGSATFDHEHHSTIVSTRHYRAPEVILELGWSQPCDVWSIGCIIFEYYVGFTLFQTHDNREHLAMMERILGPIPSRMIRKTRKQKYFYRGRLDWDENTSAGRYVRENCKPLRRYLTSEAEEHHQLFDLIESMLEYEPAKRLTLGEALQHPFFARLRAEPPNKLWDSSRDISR
Chain of MAP3K9 (P80192 whole entry): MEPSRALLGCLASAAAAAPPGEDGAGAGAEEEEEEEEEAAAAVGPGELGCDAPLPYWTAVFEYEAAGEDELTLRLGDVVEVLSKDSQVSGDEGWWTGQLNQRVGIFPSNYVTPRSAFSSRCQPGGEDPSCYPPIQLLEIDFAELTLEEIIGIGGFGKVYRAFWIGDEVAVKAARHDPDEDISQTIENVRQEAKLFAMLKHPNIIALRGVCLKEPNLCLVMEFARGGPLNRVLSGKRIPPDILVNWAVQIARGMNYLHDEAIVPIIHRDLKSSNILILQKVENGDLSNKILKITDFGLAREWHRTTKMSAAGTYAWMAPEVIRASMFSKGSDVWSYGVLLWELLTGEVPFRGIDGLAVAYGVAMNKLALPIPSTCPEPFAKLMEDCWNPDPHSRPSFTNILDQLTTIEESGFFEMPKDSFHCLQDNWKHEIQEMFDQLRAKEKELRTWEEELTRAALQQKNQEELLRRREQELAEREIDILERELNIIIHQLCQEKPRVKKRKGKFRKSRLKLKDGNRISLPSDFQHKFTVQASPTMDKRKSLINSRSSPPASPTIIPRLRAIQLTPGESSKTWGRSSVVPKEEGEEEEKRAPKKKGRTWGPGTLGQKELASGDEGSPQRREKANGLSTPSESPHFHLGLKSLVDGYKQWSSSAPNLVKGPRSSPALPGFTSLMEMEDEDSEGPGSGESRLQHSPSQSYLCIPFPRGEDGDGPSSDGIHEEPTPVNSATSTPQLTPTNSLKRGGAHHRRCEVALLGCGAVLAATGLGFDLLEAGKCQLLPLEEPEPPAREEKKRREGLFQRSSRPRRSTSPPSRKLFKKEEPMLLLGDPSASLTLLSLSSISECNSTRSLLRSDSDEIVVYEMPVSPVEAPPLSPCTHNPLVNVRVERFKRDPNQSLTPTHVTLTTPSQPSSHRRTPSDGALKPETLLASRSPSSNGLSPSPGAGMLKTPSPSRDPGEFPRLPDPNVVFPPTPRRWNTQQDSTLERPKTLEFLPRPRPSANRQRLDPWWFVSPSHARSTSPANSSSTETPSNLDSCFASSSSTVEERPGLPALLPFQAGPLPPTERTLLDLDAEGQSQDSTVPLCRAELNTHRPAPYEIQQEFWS
Chain of MKNK2 (Q9HBH9 whole entry): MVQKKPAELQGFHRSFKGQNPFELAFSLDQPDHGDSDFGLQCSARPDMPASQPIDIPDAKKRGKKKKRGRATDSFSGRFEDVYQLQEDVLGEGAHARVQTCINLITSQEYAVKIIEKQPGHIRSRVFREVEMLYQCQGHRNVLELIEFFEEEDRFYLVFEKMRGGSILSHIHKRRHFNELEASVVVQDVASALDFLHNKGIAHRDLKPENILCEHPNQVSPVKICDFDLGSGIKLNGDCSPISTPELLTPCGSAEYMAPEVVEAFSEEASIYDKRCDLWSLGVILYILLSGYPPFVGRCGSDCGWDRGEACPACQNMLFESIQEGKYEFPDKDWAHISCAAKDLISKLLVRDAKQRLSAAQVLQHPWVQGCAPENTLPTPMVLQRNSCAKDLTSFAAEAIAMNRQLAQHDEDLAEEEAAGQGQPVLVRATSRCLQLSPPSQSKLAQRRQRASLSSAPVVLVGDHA
T2 sequence (P52333 whole entry, the tested form may be a part): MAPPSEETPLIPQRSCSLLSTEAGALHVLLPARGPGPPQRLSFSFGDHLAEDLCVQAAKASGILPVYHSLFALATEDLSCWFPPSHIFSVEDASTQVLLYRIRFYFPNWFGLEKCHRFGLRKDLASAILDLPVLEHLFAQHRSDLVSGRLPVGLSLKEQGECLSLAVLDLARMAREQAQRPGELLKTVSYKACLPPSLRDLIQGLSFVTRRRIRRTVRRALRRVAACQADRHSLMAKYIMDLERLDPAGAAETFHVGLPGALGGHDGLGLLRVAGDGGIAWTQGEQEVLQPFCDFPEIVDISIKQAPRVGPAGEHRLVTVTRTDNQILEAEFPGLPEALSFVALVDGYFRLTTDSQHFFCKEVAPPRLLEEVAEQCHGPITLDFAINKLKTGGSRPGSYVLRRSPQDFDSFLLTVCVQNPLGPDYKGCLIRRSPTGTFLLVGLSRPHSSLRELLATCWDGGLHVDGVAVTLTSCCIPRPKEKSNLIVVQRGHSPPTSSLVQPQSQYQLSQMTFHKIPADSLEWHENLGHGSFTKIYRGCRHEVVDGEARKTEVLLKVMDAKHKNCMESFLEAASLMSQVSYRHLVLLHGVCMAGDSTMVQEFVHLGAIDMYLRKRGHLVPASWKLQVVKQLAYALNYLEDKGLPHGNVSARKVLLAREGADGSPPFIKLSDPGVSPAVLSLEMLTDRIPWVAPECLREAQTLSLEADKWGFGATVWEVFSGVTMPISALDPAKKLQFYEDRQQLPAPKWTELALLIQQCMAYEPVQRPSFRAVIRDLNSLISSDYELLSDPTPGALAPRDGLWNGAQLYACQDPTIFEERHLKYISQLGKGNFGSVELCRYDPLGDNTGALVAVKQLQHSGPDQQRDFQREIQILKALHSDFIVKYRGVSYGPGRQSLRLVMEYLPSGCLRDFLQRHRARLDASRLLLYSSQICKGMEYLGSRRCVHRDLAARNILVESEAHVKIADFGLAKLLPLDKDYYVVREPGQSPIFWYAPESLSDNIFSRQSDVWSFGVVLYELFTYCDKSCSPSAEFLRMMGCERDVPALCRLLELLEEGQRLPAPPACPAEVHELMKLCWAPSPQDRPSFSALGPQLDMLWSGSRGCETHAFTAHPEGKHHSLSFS
Chain of IRAK3 (Q9Y616 whole entry): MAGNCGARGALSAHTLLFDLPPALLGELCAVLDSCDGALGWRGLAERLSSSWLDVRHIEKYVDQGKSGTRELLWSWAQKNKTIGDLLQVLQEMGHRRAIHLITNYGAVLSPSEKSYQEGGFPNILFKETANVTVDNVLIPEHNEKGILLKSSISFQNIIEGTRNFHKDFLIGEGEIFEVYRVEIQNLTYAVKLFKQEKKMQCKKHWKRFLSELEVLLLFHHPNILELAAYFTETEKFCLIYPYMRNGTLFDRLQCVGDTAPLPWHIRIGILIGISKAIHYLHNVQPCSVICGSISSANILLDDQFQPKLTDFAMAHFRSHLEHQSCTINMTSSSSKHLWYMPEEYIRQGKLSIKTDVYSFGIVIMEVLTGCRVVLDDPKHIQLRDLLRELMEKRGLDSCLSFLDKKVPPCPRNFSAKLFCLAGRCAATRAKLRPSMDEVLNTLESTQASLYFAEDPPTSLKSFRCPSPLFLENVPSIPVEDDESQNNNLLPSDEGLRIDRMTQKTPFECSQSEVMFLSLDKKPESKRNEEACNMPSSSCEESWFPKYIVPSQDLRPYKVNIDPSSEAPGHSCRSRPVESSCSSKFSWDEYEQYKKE

With `COc1cc(Nc2cncc(-c3ccc(N)cc3)n2)cc(OC)c1OC` [APA, 6-(4-aminophenyl)-N-(3,4,5-trimethoxyphenyl)pyrazin-2-amine], the “recombinant human NAT2 acetylation kinetics, LC-MS/MS of NAPA” value in test [1] is “Recombinant assays with human NAT1 and NAT2 further proved APA acetylation to be specifically mediated by NAT2”. Also, the remaining binding at 10 µM in test [2] was found to be 8.5%; in test [3] it was 26%; in [4], 20%; in [5], 21%; in test [6] it was 46%; in test [7], 29%. The remaining binding at 10 µM is 19% in test [8]; 27% in test [9]; 35% in test [10]; 37% in [11]; 7.1% in test [12]; 22% in test [13]. For the same compound, in [14], the remaining binding at 10 µM was found to be 22%.

Source of the values: publication PMC7066191, “Exploiting loss of heterozygosity for allele-selective colorectal cancer chemotherapy” (Nature Communications, 2020).
